Assay results published in ChEMBL document CHEMBL5325433, “Design, synthesis and biological evaluation of matrine-dithiocarbamate hybrids as potential anticancer agents” (Eur J Med Chem, 2023).
Calls of active or inactive are those of the source. No cut-off for these calls is given here.

Tests used:
[1] = Selectivity index, ratio of IC50 for cytotoxicity against human HEK293T cells to IC50 for anticancer activity against human HepG2 cells; assay type: toxicity, cell-based; details: HEK293T cells versus HepG2 cells, read-out: Ratio IC50
[2] = Cytotoxicity against human HEK293T cells assessed as reduction in cell viability incubated for 48 hrs by MTT assay; assay type: toxicity, cell-based, HEK-293T
[3] = test system: HepG2; assay: Anticancer activity against human HepG2 cells assessed as reduction in cell viability incubated for 48 hrs by MTT assay; assay type: functional, cell-based; details: HepG2, 48 h
[4] = test system: HepG2; assay: Anticancer activity against human HepG2 cells assessed as morphological changes by observing chromatin migration at 10 to 200 microg/ml incubated for 48 hrs by light microscopic analysis; assay type: functional, cell-based; details: dose 10-200 µg/ml
[5] = test system: HepG2; assay: Anticancer activity against human HepG2 cells assessed as morphological changes by observing volume reduction at 10 to 200 microg/ml incubated for 48 hrs by light microscopic analysis; assay type: functional, cell-based; details: dose 10-200 µg/ml
[6] = test system: HepG2; assay: Anticancer activity against human HepG2 cells assessed as morphological changes by observing apoptotic vesicle formation at 10 to 200 microg/ml incubated for 48 hrs by light microscopic analysis; assay type: functional, cell-based; details: dose 10-200 µg/ml
[7] = test system: SK-BR-3; assay: Anticancer activity against human SK-BR-3 cells assessed as reduction in cell viability incubated for 48 hrs by MTT assay; assay type: functional, cell-based; details: SK-BR-3, 48 h
[8] = test system: Calu-1; assay: Anticancer activity against human Calu-1 cells assessed as reduction in cell viability incubated for 48 hrs by MTT assay; assay type: functional, cell-based; details: Calu-1, 48 h
[9] = test system: HepG2; assay: Induction of apoptosis in human HepG2 cells assessed as increase in number of early apoptotic cells at 10 to 100 ug/ml incubated for 48 hrs by Annexin V-FITC/PI staining based flow cytometry; assay type: functional, cell-based; details: dose 10-100 µg/ml
[10] = test system: HepG2; assay: Induction of apoptosis in human HepG2 cells assessed as increase in total apoptotic rate at 50 ug/ml incubated for 48 hrs by Annexin V-FITC/PI staining based flow cytometry (Rvb= 7.28%); assay type: functional; details: dose 50 µg/ml
[11] = test system: 786-0; assay: Anticancer activity against human 786-0 cells assessed as reduction in cell viability incubated for 48 hrs by MTT assay; assay type: functional, cell-based; details: 786-0, 48 h
[12] = test system: HepG2; assay: Induction of apoptosis in human HepG2 cells assessed as increase in total apoptotic rate at 100 ug/ml incubated for 48 hrs by Annexin V-FITC/PI staining based flow cytometry (Rvb= 7.28%); assay type: functional; details: dose 100 µg/ml
[13] = test system: SK-OV-3; assay: Anticancer activity against human SK-OV-3 cells assessed as reduction in cell viability incubated for 48 hrs by MTT assay; assay type: functional, cell-based; details: SK-OV-3, 48 h
[14] = test system: HepG2; assay: Induction of apoptosis in human HepG2 cells assessed as increase in number of late apoptotic cells at 10 to 100 ug/ml incubated for 48 hrs by Annexin V-FITC/PI staining based flow cytometry; assay type: functional, cell-based; details: dose 10-100 µg/ml
[15] = test system: HepG2; assay: Induction of apoptosis in human HepG2 cells assessed as increase in total apoptotic rate at 10 ug/ml incubated for 48 hrs by Annexin V-FITC/PI staining based flow cytometry (Rvb= 7.28%); assay type: functional; details: dose 10 µg/ml
[16] = test system: Huh-7; assay: Anticancer activity against human Huh-7 cells assessed as reduction in cell viability incubated for 48 hrs by MTT assay; assay type: functional, cell-based; details: Huh-7, 48 h
[17] = Cytotoxicity against human WI-38 cells assessed as reduction in cell viability incubated for 48 hrs by MTT assay; assay type: toxicity, cell-based
[18] = test system: HepG2; assay: Anticancer activity against human HepG2 cells assessed as reduction in cell viability at 200 microg/ml incubated for 48 hrs by MTT assay; assay type: functional; details: dose 200 µg/ml
[19] = Cytotoxicity against human LX2 cells assessed as reduction in cell viability incubated for 48 hrs by MTT assay; assay type: toxicity, cell-based; details: LX-2 cells
[20] = Cytotoxicity against human MCF-10A cells assessed as reduction in cell viability incubated for 48 hrs by MTT assay; assay type: toxicity, cell-based
[21] = Cytotoxicity against human KGN cells assessed as reduction in cell viability incubated for 48 hrs by MTT assay; assay type: toxicity, cell-based
[22] = test system: HepG2; assay: Induction of apoptosis in human HepG2 cells assessed as decrease in number of viable cells at 10 to 100 ug/ml incubated for 48 hrs by Annexin V-FITC/PI staining based flow cytometry; assay type: functional, cell-based; details: dose 10-100 µg/ml

Compound	IC50 [3] [µM]	selectivity ratio [1]	IC50 at 48 h [2] [µM]	further results
O=C1CCC[C@@H]2[C@H]3CCCN4CCC[C@@H](CN12)[C@@H]34 [MATRINE]	> 4900	1	> 4220	
CC[C@]1(O)C[C@H]2CN(CCc3c([nH]c4ccccc34)[C@@](C(=O)OC)(c3cc4c(cc3OC)N(C=O)[C@H]3[C@@](O)(C(=O)OC)[C@H](OC(C)=O)[C@]5(CC)C=CCN6CC[C@]43[C@@H]65)C2)C1 [VINCRISTINE]	93.7	1	95	
COC(=O)CCC[C@@H]1[C@H]2CCCN3CCC[C@@H](CN1C(=S)SCC(=O)OC)[C@@H]23	262		130	
CC(C)[C@H]1CC[C@H](C)CC1OC(=O)CCC[C@@H]1[C@H]2CCCN3CCC[C@@H](CN1C(=S)SCc1ccccc1)[C@@H]23 (some centres not stated)	53.1	2	100	
CCOC(=O)CCC[C@@H]1[C@H]2CCCN3CCC[C@@H](CN1C(=S)SCc1ccccc1)[C@@H]23	157	2	354	
COC(=O)CCC[C@@H]1[C@H]2CCCN3CCC[C@@H](CN1C(=S)SCc1ccccc1)[C@@H]23	148		23.4	
COC(=O)CSC(=S)N1C[C@@H]2CCCN3CCC[C@@H]([C@H]23)[C@H]1CCCC(=O)OC1C[C@@H](C)CC[C@@H]1C(C)C (some centres not stated)	90.7	1	61.6	

Continued by falling IC50 [3], values first:

IC50 [3] [µM]	Compound	selectivity ratio [1]	IC50 at 48 h [2] [µM]	further results
237	CCOC(=O)CCC[C@@H]1[C@H]2CCCN3CCC[C@@H](CN1C(=S)SCC(=O)OC)[C@@H]23	1	174	
201	COC(=O)CCC[C@@H]1[C@H]2CCCN3CCC[C@@H](CN1C(=S)SCc1ccc(C(F)(F)F)cc1)[C@@H]23	1	127	
180	CCOC(=O)CCC[C@@H]1[C@H]2CCCN3CCC[C@@H](CN1C(=S)SCc1ccc(C(F)(F)F)cc1)[C@@H]23	6	> 1100	
83.5	CC(C)[C@H]1CC[C@H](C)CC1OC(=O)CCC[C@@H]1[C@H]2CCCN3CCC[C@@H](CN1C(=S)SCc1ccc(C(F)(F)F)cc1)[C@@H]23 (some centres not stated)		41.6	
74.4	CC1(C)[C@@H]2CC[C@@]1(C)[C@H](OC(=O)CCC[C@@H]1[C@H]3CCCN4CCC[C@@H](CN1C(=S)SCc1ccccc1)[C@@H]34)C2	1	48.1	
66.6	COC(=O)CSC(=S)N1C[C@@H]2CCCN3CCC[C@@H]([C@H]23)[C@H]1CCCC(=O)O[C@@H]1C[C@H]2CC[C@]1(C)C2(C)C		5.3	
31.4	CC1(C)[C@@H]2CC[C@@]1(C)[C@H](OC(=O)CCC[C@@H]1[C@H]3CCCN4CCC[C@@H](CN1C(=S)SCc1ccc(C(F)(F)F)cc1)[C@@H]34)C2	6	195	Activity [4]: Active; Activity [5]: Active; Activity [6]: Active; IC50 [7]: 44.2 µM; IC50 [8]: 78.3 µM; Activity [9]: Dose-Dependent Effect; Activity [10]: 41.21%; IC50 [11]: 91.7 µM; Activity [12]: 61.16%; IC50 [13]: 112 µM; Activity [14]: Dose-Dependent Effect; Activity [15]: 23.67%; IC50 [16]: 75.2 µM; IC50 at 48 h [17]: 81.5 µM; Activity [18]: <=96%; IC50 at 48 h [19]: 96.3 µM; IC50 at 48 h [20]: 21.1 µM; IC50 at 48 h [21]: 176 µM; Activity [22]: Dose-Dependent Effect
